The target of assay [1] is Peripheral plasma membrane protein CASK (Homo sapiens) (UniProt O14936). The experiment in a line: Binding affinity to wild-type human partial length CASK (M1 to H315 residues) expressed in mammalian expression system assessed as residual binding level at 10 uM by Kinomescan method relative to control.
The target in assay [2] is Serine/threonine-protein kinase SIK3 (Homo sapiens) (UniProt Q9Y2K2). Kind of assay: Binding affinity to wild-type human partial length QSK (A90 to L395 residues) expressed in mammalian expression system assessed as residual binding level at 10 uM by Kinomescan method relative to control.
Assay [3] addresses Dual specificity protein kinase CLK2 (Homo sapiens) (UniProt P49760). Kind of assay: Binding affinity to wild-type human partial length CLK2 (D144 to R498 residues) expressed in bacterial expression system assessed as residual binding level at 10 uM by Kinomescan method relative to control.
Assay [4] has as its target Serine/threonine-protein kinase 38 (Homo sapiens) (UniProt Q15208). Kind of assay: Binding affinity to wild-type human partial length NDR1 (N33 to E449 residues) expressed in mammalian expression system assessed as residual binding level at 10 uM by Kinomescan method relative to control.
The target in assay [5] is Mitogen-activated protein kinase kinase kinase 15 (Homo sapiens) (UniProt Q6ZN16). The experiment in a line: Binding affinity to wild-type human partial length MAP3K15 (T625 to L932 residues) expressed in mammalian expression system assessed as residual binding level at 10 uM by Kinomescan method relative to control.
The target in assay [6] is Serine/threonine-protein kinase OSR1 (Homo sapiens) (UniProt O95747). The experiment in a line: Binding affinity to wild-type human full length OSR1 (M1 to S527 residues) expressed in mammalian expression system assessed as residual binding level at 10 uM by Kinomescan method relative to control.
Assay [7] addresses Inhibitor of nuclear factor kappa-B kinase subunit alpha (Homo sapiens) (UniProt O15111). The experiment in a line: Binding affinity to wild-type human full length IKK-alpha (M1 to E745 residues) expressed in mammalian expression system assessed as residual binding level at 10 uM by Kinomescan method relative to control.
The target of assay [8] is TGF-beta receptor type-2 (Homo sapiens) (UniProt P37173). Kind of assay: Binding affinity to wild-type human partial length TGFBR2 (I218 to K567 residues) expressed in bacterial expression system assessed as residual binding level at 10 uM by Kinomescan method relative to control.
The target in assay [9] is Ephrin type-A receptor 2 (Homo sapiens) (UniProt P29317). Kind of assay: Binding affinity to wild-type human partial length EPHA2 (T593 to V891 residues) expressed in bacterial expression system assessed as residual binding level at 10 uM by Kinomescan method relative to control.
The target in assay [10] is Serine/threonine-protein kinase Sgk3 (Homo sapiens) (UniProt Q96BR1). The experiment in a line: Binding affinity to wild-type human partial length SGK3 (M119 to L496 residues) expressed in mammalian expression system assessed as residual binding level at 10 uM by Kinomescan method relative to control.
Assay [11] addresses Mitogen-activated protein kinase kinase kinase 4 (Homo sapiens) (UniProt Q9Y6R4). Kind of assay: Binding affinity to wild-type human partial length MAP3K4 (G1319 to E1608 residues) expressed in bacterial expression system assessed as residual binding level at 10 uM by Kinomescan method relative to control.
Assay [12] has as its target Serine/threonine-protein kinase PAK 3 (Homo sapiens) (UniProt O75914). The experiment in a line: Binding affinity to wild-type human full length PAK3 (M1 to R544 residues) expressed in bacterial expression system assessed as residual binding level at 10 uM by Kinomescan method relative to control.
The target in assay [13] is Cyclin-dependent kinase 13 (Homo sapiens) (UniProt Q14004). The experiment in a line: Binding affinity to wild-type human partial length CDC2L5 (H675 to S1054 residues) expressed in mammalian expression system assessed as residual binding level at 10 uM by Kinomescan method relative to control.
In assay [14] the target is Fibroblast growth factor receptor 1 (Homo sapiens) (UniProt P11362). Kind of assay: Binding affinity to wild-type human partial length FGFR1 (P357 to V669 residues) expressed in bacterial expression system assessed as residual binding level at 10 uM by Kinomescan method relative to control.
Assay [15] concerns the target Tyrosine-protein kinase HCK (Homo sapiens) (UniProt P08631). The experiment in a line: Binding affinity to wild-type human full length HCK (M22 to P526 residues) expressed in bacterial expression system assessed as residual binding level at 10 uM by Kinomescan method relative to control.
Assay [16] has as its target Wee1-like protein kinase (Homo sapiens) (UniProt P30291). The experiment in a line: Binding affinity to wild-type human partial length WEE1 (M291 to K575 residues) expressed in bacterial expression system assessed as residual binding level at 10 uM by Kinomescan method relative to control.
Assay [17] concerns the target Ribosomal protein S6 kinase alpha-6 (Homo sapiens) (UniProt Q9UK32). Kind of assay: Binding affinity to wild-type human partial length C-terminal RSK4 kinase domain 2 (I401 to Y711 residues) expressed in bacterial expression system assessed as residual binding level at 10 uM by Kinomescan method relative to control.
Assay [18] concerns the target Receptor-type tyrosine-protein kinase FLT3 (Homo sapiens) (UniProt P36888). The experiment in a line: Binding affinity to wild-type human partial length FLT3 (V592 to Y969 residues) expressed in bacterial expression system assessed as residual binding level at 10 uM by Kinomescan method relative to control.
The target of assay [19] is Ribosomal protein S6 kinase alpha-5 (Homo sapiens) (UniProt O75582). Kind of assay: Binding affinity to wild-type human partial length C-terminal RPS6KA5 kinase domain 2 (V390 to T718 residues) expressed in bacterial expression system assessed as residual binding level at 10 uM by Kinomescan method relative to control.
Assay [20] concerns the target SRSF protein kinase 1 (Homo sapiens) (UniProt Q96SB4). Kind of assay: Binding affinity to wild-type human full length SRPK1 (M1 to S655 residues) expressed in bacterial expression system assessed as residual binding level at 10 uM by Kinomescan method relative to control.
Assay [21] has as its target Phosphorylase b kinase gamma catalytic chain, skeletal muscle/heart isoform (Homo sapiens) (UniProt Q16816). Kind of assay: Binding affinity to wild-type human full length PHKG1 (M1 to Y387 residues) expressed in bacterial expression system assessed as residual binding level at 10 uM by Kinomescan method relative to control.
Assay [22] concerns the target Serine/threonine-protein kinase RIO2 (Homo sapiens) (UniProt Q9BVS4). Kind of assay: Binding affinity to wild-type human partial length RIOK2 (M1 to D313 residues) expressed in mammalian expression system assessed as residual binding level at 10 uM by Kinomescan method relative to control.
For assay [23], the target named is Protein kinase C delta type (Homo sapiens) (UniProt Q05655). The experiment in a line: Binding affinity to wild-type human partial length PRKCD (Q328 to D676 residues) expressed in bacterial expression system assessed as residual binding level at 10 uM by Kinomescan method relative to control.
The target in assay [24] is Receptor-interacting serine/threonine-protein kinase 1 (Homo sapiens) (UniProt Q13546). Kind of assay: Binding affinity to wild-type human partial length RIPK1 (M1 to K305 residues) expressed in bacterial expression system assessed as residual binding level at 10 uM by Kinomescan method relative to control.

The text below walks through data of ChEMBL document CHEMBL4304811, “Development of a Water-Soluble Indolylmaleimide Derivative IM-93 Showing Dual Inhibition of Ferroptosis and NETosis” (ACS Med Chem Lett, 2019).

Chain of Inhibitor of nuclear factor kappa-B kinase subunit alpha (Homo sapiens) (O15111 whole entry, the tested form may be a part): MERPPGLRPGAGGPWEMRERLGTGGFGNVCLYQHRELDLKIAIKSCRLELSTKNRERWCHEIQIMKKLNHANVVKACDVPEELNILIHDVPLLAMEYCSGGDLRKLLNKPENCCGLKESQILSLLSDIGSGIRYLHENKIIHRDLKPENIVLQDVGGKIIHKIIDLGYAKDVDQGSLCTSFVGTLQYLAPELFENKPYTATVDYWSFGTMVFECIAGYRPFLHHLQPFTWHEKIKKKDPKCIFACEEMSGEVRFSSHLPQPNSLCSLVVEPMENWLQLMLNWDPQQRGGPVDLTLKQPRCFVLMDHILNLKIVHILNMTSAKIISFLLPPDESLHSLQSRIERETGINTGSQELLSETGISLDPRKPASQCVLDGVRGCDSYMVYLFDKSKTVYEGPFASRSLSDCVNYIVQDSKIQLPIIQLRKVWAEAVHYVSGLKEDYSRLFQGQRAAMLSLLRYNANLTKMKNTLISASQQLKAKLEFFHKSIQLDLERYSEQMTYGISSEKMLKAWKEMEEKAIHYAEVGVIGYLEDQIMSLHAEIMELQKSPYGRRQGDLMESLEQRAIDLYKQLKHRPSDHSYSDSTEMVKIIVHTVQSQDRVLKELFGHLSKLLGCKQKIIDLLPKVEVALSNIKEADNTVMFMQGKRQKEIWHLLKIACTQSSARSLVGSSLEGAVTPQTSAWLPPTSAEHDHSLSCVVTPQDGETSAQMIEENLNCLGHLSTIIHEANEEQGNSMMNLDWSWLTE
Chain of Receptor-type tyrosine-protein kinase FLT3 (Homo sapiens) (P36888 whole entry, the tested form may be a part): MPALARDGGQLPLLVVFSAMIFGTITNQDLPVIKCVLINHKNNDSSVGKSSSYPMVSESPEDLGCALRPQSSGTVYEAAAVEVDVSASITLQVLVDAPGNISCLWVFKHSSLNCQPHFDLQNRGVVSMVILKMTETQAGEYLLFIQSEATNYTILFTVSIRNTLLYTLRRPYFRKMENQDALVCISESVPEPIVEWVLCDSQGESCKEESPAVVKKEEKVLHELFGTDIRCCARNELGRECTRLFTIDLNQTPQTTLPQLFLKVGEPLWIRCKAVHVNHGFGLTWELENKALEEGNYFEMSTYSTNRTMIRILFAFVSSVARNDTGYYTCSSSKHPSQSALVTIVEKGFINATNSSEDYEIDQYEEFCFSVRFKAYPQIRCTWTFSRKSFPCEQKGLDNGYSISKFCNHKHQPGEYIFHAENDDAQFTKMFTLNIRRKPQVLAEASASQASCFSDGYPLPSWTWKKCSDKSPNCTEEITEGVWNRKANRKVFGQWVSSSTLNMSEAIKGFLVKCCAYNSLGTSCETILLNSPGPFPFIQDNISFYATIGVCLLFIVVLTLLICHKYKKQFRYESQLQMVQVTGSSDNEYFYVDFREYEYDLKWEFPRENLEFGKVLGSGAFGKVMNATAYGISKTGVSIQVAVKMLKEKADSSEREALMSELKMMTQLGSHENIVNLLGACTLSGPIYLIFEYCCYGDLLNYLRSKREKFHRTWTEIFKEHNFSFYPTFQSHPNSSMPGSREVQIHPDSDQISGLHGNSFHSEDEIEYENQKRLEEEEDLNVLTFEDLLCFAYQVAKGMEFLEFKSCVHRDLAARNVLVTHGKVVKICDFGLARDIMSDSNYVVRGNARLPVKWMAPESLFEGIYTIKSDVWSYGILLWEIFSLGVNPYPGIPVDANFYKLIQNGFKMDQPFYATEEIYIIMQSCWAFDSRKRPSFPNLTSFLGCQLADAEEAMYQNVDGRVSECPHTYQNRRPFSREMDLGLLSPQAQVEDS
Chain of Tyrosine-protein kinase HCK (Homo sapiens) (P08631 2-526 limits assumed): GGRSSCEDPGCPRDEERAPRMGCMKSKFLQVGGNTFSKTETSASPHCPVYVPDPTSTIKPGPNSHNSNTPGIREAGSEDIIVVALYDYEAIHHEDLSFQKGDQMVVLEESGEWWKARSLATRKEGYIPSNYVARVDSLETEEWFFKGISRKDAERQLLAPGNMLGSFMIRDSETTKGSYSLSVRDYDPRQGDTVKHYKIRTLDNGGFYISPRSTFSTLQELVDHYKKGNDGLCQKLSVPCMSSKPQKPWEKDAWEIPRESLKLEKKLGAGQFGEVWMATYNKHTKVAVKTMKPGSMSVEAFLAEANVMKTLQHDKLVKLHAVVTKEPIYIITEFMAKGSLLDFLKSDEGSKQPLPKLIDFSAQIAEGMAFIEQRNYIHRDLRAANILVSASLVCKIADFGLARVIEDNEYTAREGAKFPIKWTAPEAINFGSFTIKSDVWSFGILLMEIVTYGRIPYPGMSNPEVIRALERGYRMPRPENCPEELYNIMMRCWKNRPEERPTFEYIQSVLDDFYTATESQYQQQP
Chain of Mitogen-activated protein kinase kinase kinase 15 (Homo sapiens) (Q6ZN16 whole entry, the tested form may be a part): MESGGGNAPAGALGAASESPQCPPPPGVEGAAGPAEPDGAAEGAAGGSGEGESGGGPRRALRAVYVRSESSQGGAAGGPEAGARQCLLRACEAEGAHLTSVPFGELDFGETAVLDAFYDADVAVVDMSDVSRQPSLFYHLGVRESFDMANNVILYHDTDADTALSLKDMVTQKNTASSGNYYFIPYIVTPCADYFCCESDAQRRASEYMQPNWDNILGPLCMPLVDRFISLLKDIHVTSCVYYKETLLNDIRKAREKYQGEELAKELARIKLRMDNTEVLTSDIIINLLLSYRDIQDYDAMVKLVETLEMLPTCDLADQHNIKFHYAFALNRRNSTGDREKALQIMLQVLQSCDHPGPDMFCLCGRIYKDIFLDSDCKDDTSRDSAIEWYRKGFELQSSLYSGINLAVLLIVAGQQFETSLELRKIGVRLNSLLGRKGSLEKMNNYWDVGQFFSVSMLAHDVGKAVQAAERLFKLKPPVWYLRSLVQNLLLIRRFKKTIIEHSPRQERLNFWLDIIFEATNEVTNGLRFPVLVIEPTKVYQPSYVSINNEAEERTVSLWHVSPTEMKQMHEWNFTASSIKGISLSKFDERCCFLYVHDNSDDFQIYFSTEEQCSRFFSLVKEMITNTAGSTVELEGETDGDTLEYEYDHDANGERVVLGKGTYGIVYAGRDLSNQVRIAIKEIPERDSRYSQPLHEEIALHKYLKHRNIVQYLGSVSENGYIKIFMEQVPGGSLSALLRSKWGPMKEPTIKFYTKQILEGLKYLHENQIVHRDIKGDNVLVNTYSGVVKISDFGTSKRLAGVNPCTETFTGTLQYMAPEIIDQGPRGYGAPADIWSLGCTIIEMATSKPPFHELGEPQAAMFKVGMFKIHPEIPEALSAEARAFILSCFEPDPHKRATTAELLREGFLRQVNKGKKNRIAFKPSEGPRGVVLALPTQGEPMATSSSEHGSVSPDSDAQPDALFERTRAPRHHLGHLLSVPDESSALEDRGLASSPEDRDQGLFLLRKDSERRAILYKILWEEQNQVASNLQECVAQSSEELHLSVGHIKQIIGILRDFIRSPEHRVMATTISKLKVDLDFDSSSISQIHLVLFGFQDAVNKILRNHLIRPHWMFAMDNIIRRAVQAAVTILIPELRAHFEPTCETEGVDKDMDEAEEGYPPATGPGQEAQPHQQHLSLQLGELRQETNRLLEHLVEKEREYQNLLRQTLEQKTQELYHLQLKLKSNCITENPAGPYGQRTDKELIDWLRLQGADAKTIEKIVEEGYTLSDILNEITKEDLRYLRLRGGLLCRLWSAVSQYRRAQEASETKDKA
Chain of Receptor-interacting serine/threonine-protein kinase 1 (Homo sapiens) (Q13546 whole entry, the tested form may be a part): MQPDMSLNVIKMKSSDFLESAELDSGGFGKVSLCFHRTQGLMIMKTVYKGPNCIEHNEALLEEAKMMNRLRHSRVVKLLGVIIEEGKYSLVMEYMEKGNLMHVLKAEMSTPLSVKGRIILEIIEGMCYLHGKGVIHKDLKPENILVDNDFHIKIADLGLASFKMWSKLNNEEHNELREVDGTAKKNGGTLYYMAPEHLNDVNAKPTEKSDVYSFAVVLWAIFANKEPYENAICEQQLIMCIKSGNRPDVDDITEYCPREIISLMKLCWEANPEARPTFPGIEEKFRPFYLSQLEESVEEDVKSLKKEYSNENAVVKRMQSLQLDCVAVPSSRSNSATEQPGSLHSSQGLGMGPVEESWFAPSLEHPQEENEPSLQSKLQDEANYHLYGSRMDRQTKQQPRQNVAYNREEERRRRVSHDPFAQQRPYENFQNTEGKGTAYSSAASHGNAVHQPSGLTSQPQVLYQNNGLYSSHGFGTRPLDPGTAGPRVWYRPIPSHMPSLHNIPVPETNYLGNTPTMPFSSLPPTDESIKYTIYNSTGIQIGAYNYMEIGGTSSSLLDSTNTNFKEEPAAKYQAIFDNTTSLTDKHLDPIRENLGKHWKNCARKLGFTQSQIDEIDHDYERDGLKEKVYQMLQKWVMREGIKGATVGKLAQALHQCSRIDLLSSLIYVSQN
Chain of Phosphorylase b kinase gamma catalytic chain, skeletal muscle/heart isoform (Homo sapiens) (Q16816 whole entry, looked up, the tested form may be a part, canonical isoform): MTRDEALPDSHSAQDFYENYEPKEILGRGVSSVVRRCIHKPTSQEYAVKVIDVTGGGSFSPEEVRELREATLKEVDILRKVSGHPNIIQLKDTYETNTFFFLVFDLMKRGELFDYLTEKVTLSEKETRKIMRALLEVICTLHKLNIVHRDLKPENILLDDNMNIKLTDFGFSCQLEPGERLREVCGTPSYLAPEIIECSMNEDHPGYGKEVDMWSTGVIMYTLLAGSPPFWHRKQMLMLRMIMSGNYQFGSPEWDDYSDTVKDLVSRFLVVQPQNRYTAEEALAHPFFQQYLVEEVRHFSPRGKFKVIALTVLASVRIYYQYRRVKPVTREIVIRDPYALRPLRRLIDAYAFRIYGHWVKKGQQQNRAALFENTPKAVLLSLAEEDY

With `CC(C)N1C(=O)C(NCCCN(C)C)=C(c2cn(C)c3ccccc23)C1=O.Cl`, the Activity in assay [1] stood at 92%; in assay [2], 93%; in [3], 90%; in [4] it was 93%; in assay [5], 94%; in assay [6] it was 77%. In addition, the Activity in assay [7] stood at 81%; in assay [8] it was 92%; in [9], 90%; in assay [10], 89%; in assay [11] it was 85%; in assay [12] it was 100%. Besides, the Activity in assay [13] was determined as 99%; in [14], 84%; in assay [15] it was 100%; in assay [16] it was 100%; in assay [17], 100%; in assay [18] it was 100%. Besides, the Activity in assay [19] came to 96%; in [20], 83%; in assay [21], 94%; in assay [22] it was 91%; in assay [23] it was 100%; in [24], 96%.
